Results from patent publication US4683237A, “Fluoroalkyl esters of dihydrolysergic acid useful as 5HT2 receptor antagonists” (Eli Lilly and Company, priority 1985, dated 1987).
Where a name gives a salt, the structure may show the parent alone.

What was measured:
[1] = molecular target: T1, 5HT2 receptors (Rattus norvegicus, UniProt P14842); assay: Antagonism of serotonin contraction in isolated rat external jugular vein (apparent antagonist dissociation constant); parameters: species or system Male Wistar rats; conditions: serotonin agonist, antagonist incubated one hour, 37° C., read-out: -log KB ± S.E. (apparent antagonist dissociation constant) (converted)
T1 construct: Contraction to serotonin was evaluated in the jugular vein since this tissue produces marked responses to serotonin in the absence of alpha receptors; from tissue; host or cells: external jugular vein of male Wistar rats
T1 sequence (P14842 whole entry): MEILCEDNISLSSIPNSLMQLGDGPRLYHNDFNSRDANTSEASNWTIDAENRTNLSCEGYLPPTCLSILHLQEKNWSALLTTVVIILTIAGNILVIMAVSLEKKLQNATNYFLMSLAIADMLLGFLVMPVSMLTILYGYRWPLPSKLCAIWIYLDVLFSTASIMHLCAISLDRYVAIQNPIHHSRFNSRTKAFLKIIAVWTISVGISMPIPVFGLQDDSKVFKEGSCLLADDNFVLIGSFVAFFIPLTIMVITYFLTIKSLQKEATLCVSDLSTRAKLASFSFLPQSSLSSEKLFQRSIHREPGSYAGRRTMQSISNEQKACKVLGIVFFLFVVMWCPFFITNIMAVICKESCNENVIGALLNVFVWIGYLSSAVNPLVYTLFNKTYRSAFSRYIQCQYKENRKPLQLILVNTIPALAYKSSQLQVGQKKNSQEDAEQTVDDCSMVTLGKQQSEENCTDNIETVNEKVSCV
Protocol: An initial optimum resting force of 1 and 4 g was applied to the jugular vein and aorta, respectively. […] Exp. Ther., 205, 400 (1978). Alpha receptor antagonist activity was evaluated in the aorta.
The -log KB ±S.E. value obtained for 1-fluoromehtyl-2-fluoroethyl 1-isopropyl-9,10-dihydrolysergate maleate was 8.97±0.22.

[2] = system: 5HT2 receptors; conditions: in words; mediated by 5HT2 receptors; Cohen I; cited from earlier work
[3] = system: vascular alpha adrenergic, dopaminergic and histaminergic receptors; conditions: in words; Cohen I; cited from earlier work
[4] = system: 5HT2 receptors; conditions: in words; Garbrecht compounds; cited from earlier work

SMILES | Kb [1] [nM] | antagonism of vascular contraction to serotonin [2] | affinity for vascular alpha adrenergic, dopaminergic and histaminergic receptors [3] | peripheral serotonin antagonist activity against 5HT2 receptors [4]
CC(C)n1cc2c3c(cccc31)[C@H]1C[C@@H](C(=O)OC(CF)CF)CN(C)[C@@H]1C2 [1-fluoromethyl-2-fluoroethyl-1-isopropyl-9,10-dihydrolysergate maleate] | 1.07 | – | – | –
CC(O)C(C)OC(=O)[C@@H]1C[C@@H]2c3cccc4c3c(cn4C(C)C)C[C@H]2N(C)C1 (stereo partly drawn) [LY53857, 1-isopropyl-6-methyl-8β-(1-methyl-2-hydroxy)propoxycarbonyl-5R-ergoline] | – | potent antagonist of vascular contraction to serotonin | minimal affinity | most active peripheral serotonin antagonist from Garbrecht
